Test results as given in patent US20030133962A1, “Pest control agent/pf 1022-221” (priority 1999, published 2003).

How the values were obtained:
[1] = system: silkworms; conditions: known from literature (Kanaoka et al. 1979; JP 05 271 013); cited from earlier work
[2] = system: larvae of the mustard beetle (Phaedon cochleariae); experiment: Phaedon larvae test; assay type: in vivo; conditions: active compound concentration 1000 ppm; dipped cabbage leaves (Brassica oleracea)
Method: (§1) Solvent: 3 parts by weight of dimethylformamide
(§2) Emulsifier: 1 part by weight of alkylaryl polyglycol ether
(§3) To produce a suitable preparation of active compound, 1 part by weight of active compound is mixed with the stated amounts of solvent and emulsifier, and the concentrate is diluted with emulsifier-containing water to the desired concentration.
Cabbage leaves (Brassica oleracea) are treated by being dipped into the preparation of active compound of the desired concentration and populated with larvae of the mustard beetle (Phaedon cochleariae) while the leaves are still moist.
After the desired period of time, the kill in % is determined. 100% means that all beetle larvae have been killed; 0% means that none of the beetle larvae have been killed.

[3] = system: caterpillars of the diamond back moth (Plutella xylostella); experiment: Plutella test/symptomatology study; assay type: in vivo; conditions: 10 μg/larva; 1 μl acetone solution administered to caterpillars
Method: Plutella test/symptomatology study
To prepare an advantgeous preparation of active compound, 10 mg of active compound are mixed with 1 ml of solvent.
1 μl of the solution prepared in this manner is administered to caterpillars of the diamond back moth (Plutella xylostella).
After the desired period of time, the kill in % is determined 100% means that all caterpillars have been killed; 0% means that none of the caterpillars have been killed.

[4] = system: Meloidogyne incognita; experiment: Meloidogyne test; assay type: in vivo; conditions: active compound concentration 20 ppm; sand, lettuce seeds
Method: as §1, §2
To produce a suitable preparation of active compound, 1 part by weight of active compound is mixed with the stated amounts of solvent and emulsifier, and the concentrate is diluted with water to the desired concentration.
Vessels are filled with sand, a solution of the active compound, Meloidogyne incognita-egg larvae suspension and lettuce seeds. The lettuice seeds germinate, and the small plants develop. On the roots, galls are formed.
After the desired period of time, the nematicidal action is determined in % by the formation of galls. 100% means that no galls have been found; 0% means that the number of galls on the treated plants corresponds to that of the untreated control.

[5] = system: caterpillars of the army worm (Spodoptera frugiperda); experiment: Spodoptera frugiperda test; assay type: in vivo; conditions: active compound concentration 1000 ppm; dipped cabbage leaves (Brassica oleracea)
Method: Spodoptera frugiperda test
Solvent: 31 parts by weight of acetone
as §2, §3
Cabbage leaves (Brassica oleracea) are treated by being dipped into the preparation of active compound of the desired concentration and populated with caterpillars of the army worm (Spodoptera frugiperda) while the leaves are still moist.
After the desired period of time, the kill in % is determined. 100% means that all caterpillars have been killed; 0% means that none of the caterpillars have been killed.

| Structure (SMILES) | insecticidal activity against silkworms [1] | kill rate [2] [%] | kill rate [3] [%] | nematicidal action (effect) by the formation of galls [4] [%] | kill rate [5] [%] |
| --- | --- | --- | --- | --- | --- |
| CC(C)C[C@H]1C(=O)O[C@H](Cc2ccccc2)C(=O)N(C)[C@@H](CC(C)C)C(=O)O[C@H](C)C(=O)N(C)[C@@H](CC(C)C)C(=O)O[C@H](Cc2ccccc2)C(=O)N(C)[C@@H](CC(C)C)C(=O)O[C@H](C)C(=O)N1C [PF1022A] | insecticidal activity |  |  |  |  |
| CC(C)C[C@H]1C(=O)O[C@H](C(C)C)C(=O)N(C)[C@@H](CC(C)C)C(=O)O[C@H](C(C)C)C(=O)N(C)[C@@H](CC(C)C)C(=O)O[C@H](C(C)C)C(=O)N(C)[C@@H](CC(C)C)C(=O)O[C@H](C(C)C)C(=O)N1C [bassianolide] | insecticidal activity |  |  |  |  |
| CC(C)C[C@H]1C(=O)O[C@H](Cc2ccc(N3CCOCC3)cc2)C(=O)N(C)[C@@H](CC(C)C)C(=O)O[C@H](C)C(=O)N(C)[C@@H](CC(C)C)C(=O)O[C@H](Cc2ccc(N3CCOCC3)cc2)C(=O)N(C)[C@@H](CC(C)C)C(=O)O[C@H](C)C(=O)N1C [compound of the formula (I)] |  | 100 | 100 | 98 | 100 |
